Experimental data from patent US4563467A, “Derivatives of N-iminopyridinium betaines having anti-hypertensive and salidiuretic activity and their preparation” (Provesan S.A., priority 1983, dated 1986).
Counter-ions that a name gives are not always drawn. Like-named read-outs stand apart in the source and are kept apart here.

Test: Diuretic activity (method of Taylor and Topliss): elimination of urine and urine parameters over 8 hours
Format: in vivo, Male Sprague-Dawley (HC/CFY) rats
Conditions: rat; for ED50: po, from regression of log dose against percentage effect; for ED50 / Elimination of urine, 8 h: 8 h; for Elimination in the urine: Cl / Elimination in the urine: K / Elimination in the urine: Na / Osmotic pressure of urine / Urine pH / Elimination of urine, 1 h / Elimination of urine, 2 h / Elimination of urine, 3 h / Elimination of urine, 4 h / Elimination of urine, 6 h / Elimination of urine, 8 h: 40 mg/kg; for Elimination in the urine: Cl / Elimination in the urine: K / Elimination in the urine: Na / Osmotic pressure of urine / Urine pH: over 8 hours; for Elimination of urine, 1 h / Elimination of urine, 2 h / Elimination of urine, 3 h / Elimination of urine, 4 h / Elimination of urine, 6 h / Elimination of urine, 8 h: probang
Procedure: ACTIVITY Method of R. M. Taylor and […]. Med. Pharm. Chem. 1962, 4, 312 Male Sprague-Dawley (HC/CFY) rats weighting between 150 and 200 grams are used. The animals are kept without food and water for 16 hours before the start of the test. The products are administered as a suspension in a 0.5% strength carboxymethylcellulose suspension in a 0.9% strength sodium chloride solution, using a probang, the amount administered being 50 ml/kg of body weight. […] The following parameters are determined in the urine: volume (ml/kg); sodium and potassium (milliequivalents/kg/8 h) (flame photometer); chloride (milliequivalents/kg/8 h) (chloride-meter); pH/8 h (pH-meter) and osmotic pressure (osmotic millimols/kg/8 h) (osmometer). The comparsion animals are given the 0.5% strength carboxymethylcellulose suspension in a 0.9% strength sodium chloride solution in an amount of […] of body weight.

[1] = read-out: ED50, osmotic pressure (m osmol/kg/8 h)
[2] = read-out: ED50, volume of urine (ml/kg/8 h)

Row | SMILES | ED50 [1] [mg/kg] | ED50 [2] [mg/kg] | Elimination in the urine: Cl [milliequivalents/kg/8 h] | Elimination in the urine: K [milliequivalents/kg/8 h] | Elimination in the urine: Na [milliequivalents/kg/8 h] | Osmotic pressure of urine [osmotic millimols/kg/8 h] | Urine pH | Elimination of urine, 1 h [mL/kg] | Elimination of urine, 2 h [mL/kg] | Elimination of urine, 3 h [mL/kg] | Elimination of urine, 4 h [mL/kg] | Elimination of urine, 6 h [mL/kg] | Elimination of urine, 8 h [mL/kg]
1 | NS(=O)(=O)c1cc(C2(O)NC(=O)c3ccccc32)ccc1Cl (centres unmarked) [Chlortalidone, reference compound] | 7.7 | 6.9 | 10.8 | 1.9 | 9.3 | 29.9 | 6.6 | 8.7 | 21.0 | 30.9 | 37.6 | 45.6 | 49.8
2 | NS(=O)(=O)c1cc(C(=O)[N-][n+]2ccccc2)ccc1Cl [Example 1, 1-[(4-chloro-3-sulfamylbenzoyl)-amino]pyridinium hydroxide inner salt] | 1.9 | 4.1 | 9.2 | 1.5 | 8.3 | 25.5 | 6.6 | 7.3 | 15.2 | 27.6 | 35.4 | 40.5 | 44.5
3 | Cc1cccc(C)[n+]1[N-]C(=O)c1ccc(Cl)c(S(N)(=O)=O)c1 [Example 3, 1-[(4-chloro-3-sulfamylbenzoyl)-amino]-2,6-dimethylpyridinium hydroxide inner salt] | 2.1 | 4.6 | 11.7 | 1.8 | 9.5 | 34.2 | 6.1 | 8.4 | 22.9 | 31.9 | 36.7 | 45.2 | 50.7
4 | NC(=O)c1ccc[n+]([N-]C(=O)c2ccc(Cl)c(S(N)(=O)=O)c2)c1 [Example 4, 1-[(4-chloro-3-sulfamylbenzoyl)-amino]-3-carbamylpyridinium hydroxide inner salt] |  |  | 7.0 | 1.1 | 6.6 | 20.8 | 6.2 | 5.8 | 8.6 | 19.5 | 24.2 | 31.1 | 37.5
5 | Cc1cc(C)[n+]([N-]C(=O)c2cc(S(N)(=O)=O)c(Cl)cc2NCc2ccco2)c(C)c1 [Example 5, 1-{[4-chloro-2-(2-furylmethylamino)-5-sulfamylbenzoyl]-amino}-2,4,6-trimethylpyridinium hydroxide inner salt] |  |  | 6.2 | 1.3 | 3.0 | 16.6 | 6.1 | 1.1 | 3.4 | 8.0 | 12.5 | 18.4 | 20.7
6 | NS(=O)(=O)c1cc(C(=O)[N-][n+]2c(-c3ccccc3)cc(-c3ccccc3)cc2-c2ccccc2)ccc1Cl [Example 6, 1-[(4-chloro-3-sulfamylbenzoyl)-amino]2,4,6-triphenylpyridinium hydroxide inner salt] |  |  | 8.1 | 1.1 | 6.6 | 25.3 | 6.0 | 6.9 | 14.2 | 19.4 | 22.2 | 26.0 | 27.4
7 | Cc1cc(C)[n+](NC(=O)c2ccc(Cl)c(S(N)(=O)=O)c2)c(C)c1.[Cl-] [Example 7, 1-[(4-chloro-3-sulfamylbenzoyl)-amino]-2,4,6-trimethylpyridinium chloride] |  |  | 9.3 | 1.6 |  | 31.0 | 6.3 | 6.2 | 18.6 | 28.4 | 36.1 | 47.3 | 52.4
8 | Cc1cc(C)[n+](NC(=O)c2cc(S(N)(=O)=O)c(Cl)cc2NCc2ccco2)c(C)c1.Cl.[Cl-] [Example 8, 1-{[4-chloro-2-(2-furylmethylamino)-5-sulfamylbenzoyl]-amino}-2,4,6-trimethylpyridinium chloride hydrochloride] |  |  | 7.2 | 1.2 | 5.9 | 23.4 | 6.7 | 0.0 | 11.9 | 19.6 | 28.5 | 34.4 | 39.2
9 | NS(=O)(=O)c1cc(C(=O)N[n+]2c(-c3ccccc3)cc(-c3ccccc3)cc2-c2ccccc2)ccc1Cl.[Cl-] [Example 9, 1-[(4-chloro-3-sulfamylbenzoyl)-amino]-2,4,6-triphenylpyridinium chloride] |  |  | 7.5 | 1.2 | 6.0 | 25.1 | 6.2 | 5.2 | 12.6 | 16.8 | 19.0 | 21.5 | 25.3
